Measurements taken from PMC5028780, “Receptor and transporter binding and activity profiles of albiflorin extracted from Radix paeoniae Alba” (Scientific Reports, 2016).

Assays:
duration of immobility [1] = tested on: duration of immobility; design: method as in PMID 26719283; settings: mice; short- and long-term administration; cited from earlier work
hNET = molecular target: T1, hNET (Homo sapiens, UniProt P23975); assay: Human monoamine transporter binding assay, NET
T1 construct: expressed in transfected cells
T1 sequence (P23975 whole entry): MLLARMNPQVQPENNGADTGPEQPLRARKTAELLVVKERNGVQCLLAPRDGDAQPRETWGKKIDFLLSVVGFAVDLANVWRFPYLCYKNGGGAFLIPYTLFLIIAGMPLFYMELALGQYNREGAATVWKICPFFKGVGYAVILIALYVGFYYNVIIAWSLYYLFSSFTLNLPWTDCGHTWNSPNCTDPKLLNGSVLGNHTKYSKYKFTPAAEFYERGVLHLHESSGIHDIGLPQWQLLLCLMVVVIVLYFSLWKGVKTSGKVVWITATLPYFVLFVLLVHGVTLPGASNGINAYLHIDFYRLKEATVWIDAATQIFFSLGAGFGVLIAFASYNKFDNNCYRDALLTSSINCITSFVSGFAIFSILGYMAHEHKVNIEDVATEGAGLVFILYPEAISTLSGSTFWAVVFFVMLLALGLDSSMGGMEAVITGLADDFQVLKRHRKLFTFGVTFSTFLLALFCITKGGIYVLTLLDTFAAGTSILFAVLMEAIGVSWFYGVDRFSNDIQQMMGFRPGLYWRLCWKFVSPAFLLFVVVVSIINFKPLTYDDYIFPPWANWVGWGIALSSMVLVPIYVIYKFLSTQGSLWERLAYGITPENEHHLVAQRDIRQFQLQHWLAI
Description: Membranes were prepared from HEK293 cells stably expressing hSERT, hNET, or hDAT as described previously. Briefly, [^3H]-citalopram (1 nM), [^3H]-nisoxetine (2 nM), or [^3H]-WIN35,428 (2 nM) was used to label human 5-HT, NE, or DA transporters, respectively.
All data for inhibition curves were analysed by nonlinear regression using Prism software (GraphPad Software Inc., San Diego, CA) to determine IC50 values. For the microdialysis experiments, two-way repeated-measures ANOVA followed by Tukey’s test was used to compare the percentage increase over baseline between groups, time and treatment as independent factors, and time as the repeated factor.

H2 = H2 (Homo sapiens, UniProt P25021); assay: CNS receptor binding, histamine H2; settings: HEK293 cell line, [3H]-tiotodine(1)
H2, sequence (P25021 whole entry): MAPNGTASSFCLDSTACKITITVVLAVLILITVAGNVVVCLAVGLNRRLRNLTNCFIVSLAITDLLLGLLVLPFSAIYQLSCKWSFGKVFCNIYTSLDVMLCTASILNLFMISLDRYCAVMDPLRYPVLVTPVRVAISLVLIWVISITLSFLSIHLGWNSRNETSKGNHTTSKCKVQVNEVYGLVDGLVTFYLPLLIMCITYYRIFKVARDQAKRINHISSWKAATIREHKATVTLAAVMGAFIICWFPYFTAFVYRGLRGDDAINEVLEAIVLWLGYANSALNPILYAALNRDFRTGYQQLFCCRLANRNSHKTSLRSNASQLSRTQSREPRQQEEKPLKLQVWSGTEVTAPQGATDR
Description: Albiflorin (10 μM) was tested for numerous other potential binding targets by using standard receptor binding procedures. The tested targets included the following receptors: D1, D2, D3, D4, D5, 5-HT1A, 5-HT1B, 5-HT1D, 5-HT2a, 5-HT2C, 5-HT3, 5-HT5A, 5-HT6, 5-HT7, α1A, α1B, α2A, β1, M1, M2, M3, M4, M5, μ, κ, δ, A1, A2A, H1, H2, H3, H4.

duration of immobility [2] = tested on: duration of immobility; design: method as in PMID 26719283; settings: mice; short- and long-term administration; cited from earlier work; remark: listed apart in the source

C[C@]12C[C@@H](O)[C@@H]3C[C@@]1(O[C@@H]1O[C@H](CO)[C@@H](O)[C@H](O)[C@H]1O)[C@@]3(COC(=O)c1ccccc1)C(=O)O2 [albiflorin, Albiflorin]
antidepressant-like effect, tail-suspension test (duration of immobility [1]): decreases in the duration of immobility
Ki (hNET; Human, [3H]-nisoxetine, HEK293 cell line): 1.23 ± 0.07 nM
affinity relative to desipramine in hNET binding assay (hNET; albiflorin vs desipramine): 4 fold
% Inhibition of binding at 10 μM albiflorin (H2): 68.99%
IC50 (H2; read-out: IC50 values for albiflorin): 4000 ± 201 nM
antidepressant-like effect, forced-swim test (duration of immobility [2]): decreases in the duration of immobility
